We go through 20 compounds from PubChem BioAssay AID330 (DTP/NCI, 2004).

In the test the test system is P388 leukemia ip, CD2F1 mice, survival T/C. The test is described as follows: NCI In Vivo Anticancer Drug Screen. Data for tumor model P388 Leukemia (intraperitoneal) in CD2F1 (CDF1) mice. The conditions noted are these: endpoint: median survival time, higher = longer survival. A digest of the protocol: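 Mice carrying the transplanted tumor received test compound or vehicle. Survival was recorded in each group, and the value is the treated-group measurement divided by that of the vehicle-treated control group.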

Where [1] appears, read: dose: 60.0 mg/kg/injection, schedule: Q01DX005 (ip), vehicle: Klucel (hydroxypropylcellulose) (HPC).
The mark [2] stands for this setting: dose: 120.0 mg/kg/injection, schedule: Q01DX005 (ip), vehicle: Klucel (hydroxypropylcellulose) (HPC).
Setting [3] is: dose: 240.0 mg/kg/injection, schedule: Q01DX005 (ip), vehicle: Klucel (hydroxypropylcellulose) (HPC).
[4] abbreviates: dose: 50.0 mg/kg/injection, schedule: Q01DX009 (ip), vehicle: Klucel (hydroxypropylcellulose) (HPC).
Setting [5] is: dose: 100.0 mg/kg/injection, schedule: Q01DX009 (ip), vehicle: Klucel (hydroxypropylcellulose) (HPC).
Setting [6] is: dose: 200.0 mg/kg/injection, schedule: Q01DX009 (ip), vehicle: Klucel (hydroxypropylcellulose) (HPC).
[7] abbreviates: dose: 50.0 mg/kg/injection, schedule: Q01DX009 (ip), vehicle: saline.
Where [8] appears, read: dose: 100.0 mg/kg/injection, schedule: Q01DX009 (ip), vehicle: saline.
Setting [9] is: dose: 200.0 mg/kg/injection, schedule: Q01DX009 (ip), vehicle: saline.
Where [10] appears, read: dose: 25.0 mg/kg/injection, schedule: Q01DX009 (ip), vehicle: saline.
Setting [11] is: dose: 50.0 mg/kg/injection, schedule: Q01DX005 (ip), vehicle: saline with Tween-80.
The mark [12] stands for this setting: dose: 100.0 mg/kg/injection, schedule: Q01DX005 (ip), vehicle: saline with Tween-80.

Values joined by “and” are separate entries in the source; they are usually repeats but may differ in a detail not shown here. Equal entries are not always repeated. Toxic doses and inconclusive results are not listed.

On to `CNC(=O)Oc1ccc(Nc2ccccc2)cc1`, for which the T/C is 105 % of control under setting [1], 99 % of control under setting [2] and 97 % of control under setting [3].
As for `Cc1c(C)c(C[P+](CCP(c2ccccc2)c2ccccc2)(c2ccccc2)c2ccccc2)c(C)c(C)c1C[P+](CCP(c1ccccc1)c1ccccc1)(c1ccccc1)c1ccccc1`, the T/C is, setting by setting: (dose: 3.12 mg/kg/injection, schedule: Q04DX002 (ip), vehicle: saline with Tween-80) 100 % of control; (dose: 6.25 mg/kg/injection, schedule: Q04DX002 (ip), vehicle: saline with Tween-80) 102 % of control; (dose: 12.5 mg/kg/injection, schedule: Q04DX002 (ip), vehicle: saline with Tween-80) 100 % of control and 101 % of control.
`O=C(O)C(Cc1ccccc1)N1C(=O)C=CC1=O` (stereo unspecified): the T/C runs as follows: (dose: 10.0 mg/kg/injection, schedule: Q01DX009 (ip), vehicle: saline with Tween-80) 112 % of control; (dose: 20.0 mg/kg/injection, schedule: Q01DX009 (ip), vehicle: saline with Tween-80) 107 % of control; (dose: 40.0 mg/kg/injection, schedule: Q01DX009 (ip), vehicle: saline with Tween-80) 104 % of control and 95 % of control; under setting [4], 89 % of control; under setting [5], 90 % of control.
Turning to `N#CC1C(=O)NC(=O)C(C#N)C1c1ccccc1` (stereo unspecified), the T/C under setting [4] is 102 % of control, the T/C under setting [5] was 101 % of control and the T/C under setting [6] is 100 % of control.
Turning to `OC1CCC2CC2C1` (stereo unspecified), the T/C reads like this: under setting [7], 108 % of control; under setting [8], 102 % of control; under setting [9], 108 % of control.
`CSc1nc(Cl)cc(=O)n1C`: the T/C was 104 % of control (dose: 6.25 mg/kg/injection, schedule: Q01DX005 (ip), vehicle: Klucel (hydroxypropylcellulose) (HPC)); 105 % of control (dose: 12.5 mg/kg/injection, schedule: Q01DX005 (ip), vehicle: Klucel (hydroxypropylcellulose) (HPC)); 100 % of control and 92 % of control (dose: 25.0 mg/kg/injection, schedule: Q01DX005 (ip), vehicle: Klucel (hydroxypropylcellulose) (HPC)).
For `Cn1c(=O)c2[nH]c(Cl)nc2n(C)c1=O`, the T/C is 100 % of control under setting [10], 102 % of control under setting [7], 102 % of control under setting [8] and 99 % of control under setting [9].
`O=S1(=O)CCN(Cc2cccnc2)CC1`: the T/C runs as follows: under setting [7], 94 % of control; under setting [8], 98 % of control; under setting [9], 91 % of control.
Consider `CCC1(O)CC2CN(CCc3c([nH]c4ccccc34)C(C(=O)OC)(c3cc4c(cc3OC)N(C)C3C(O)(C(=O)NCCSSCCNC(=O)C5(O)C(O)C6(CC)C=CCN7CCC8(c9cc(C%10(C(=O)OC)CC%11CN(CCc%12c%10[nH]c%10ccccc%12%10)CC(O)(CC)C%11)c(OC)cc9N(C)C58)C76)C(O)C5(CC)C=CCN6CCC43C65)C2)C1` (stereo unspecified), for which the T/C (dose: 0.1 mg/kg/injection, schedule: Q01DX009 (ip), vehicle: saline) is 166 % of control; the T/C (dose: 0.19 mg/kg/injection, schedule: Q04DX003 (ip), vehicle: saline) was 151 % of control; the T/C (dose: 0.2 mg/kg/injection, schedule: Q01DX009 (ip), vehicle: saline) is 202 % of control; the T/C (dose: 0.31 mg/kg/injection, schedule: Q04DX003 (ip), vehicle: saline) was 170 % of control; the T/C (dose: 0.38 mg/kg/injection, schedule: Q04DX003 (ip), vehicle: saline) is 183 % of control; the T/C (dose: 0.39 mg/kg/injection, schedule: Q04DX003 (ip), vehicle: saline) is 186 % of control. For the same compound, the T/C (dose: 0.4 mg/kg/injection, schedule: Q01DX009 (ip), vehicle: saline) is 227 % of control; the T/C (dose: 0.63 mg/kg/injection, schedule: Q04DX003 (ip), vehicle: saline) is 190 % of control; the T/C (dose: 0.7 mg/kg/injection, schedule: Q04DX003 (ip), vehicle: saline) is 161 % of control; the T/C (dose: 0.75 mg/kg/injection, schedule: Q04DX003 (ip), vehicle: saline) is 209 % of control and 228 % of control; the T/C (dose: 1.0 mg/kg/injection, schedule: Q04DX003 (ip), vehicle: saline) was 212 % of control; the T/C (dose: 1.25 mg/kg/injection, schedule: Q04DX003 (ip), vehicle: saline) was 208 % of control. For the same compound, the T/C reads like this: (dose: 1.6 mg/kg/injection, schedule: Q04DX003 (ip), vehicle: saline) 231 % of control; (dose: 2.4 mg/kg/injection, schedule: Q04DX003 (ip), vehicle: saline) 119 % of control; (dose: 2.5 mg/kg/injection, schedule: Q04DX003 (ip), vehicle: saline) 236 % of control.
As for `O=C1C[N+]2(CCCCC2)c2ccc(Cl)cc2N1`, the T/C by setting is: (dose: 6.25 mg/kg/injection, schedule: Q01DX009 (ip), vehicle: saline) 104 % of control; (dose: 6.25 mg/kg/injection, schedule: Q04DX003 (ip), vehicle: saline) 100 % of control; (dose: 12.5 mg/kg/injection, schedule: Q01DX009 (ip), vehicle: saline) 109 % of control; (dose: 12.5 mg/kg/injection, schedule: Q04DX003 (ip), vehicle: saline) 104 % of control; under setting [10], 104 % of control; (dose: 25.0 mg/kg/injection, schedule: Q04DX003 (ip), vehicle: saline) 100 % of control.
For the compound `C=C1C(=O)OC2C1C(OC(=O)/C(C)=C/C)CC1(CO1)C1C(O)C3OC3(C)C21O` (stereo unspecified), the T/C reads like this: (dose: 25.0 mg/kg/injection, schedule: Q04DX002 (ip), vehicle: saline with Tween-80) 117 % of control; (dose: 50.0 mg/kg/injection, schedule: Q04DX002 (ip), vehicle: saline with Tween-80) 117 % of control.
As for `Cc1ccc(N=Cc2cccs2)c(Br)c1`, the T/C is 100 % of control under setting [4], 118 % of control under setting [5] and 100 % of control under setting [6].
Regarding `C=C(C)C1(C)CC1c1ccncc1` (stereo unspecified), the T/C was 102 % of control (dose: 25.0 mg/kg/injection, schedule: Q01DX005 (ip), vehicle: saline with Tween-80); 103 % of control under setting [11]; 94 % of control under setting [12].
In the case of `O=C(NCCNCCO)c1cccc(Nc2cc(O)c(O)c3ccccc23)c1`, the T/C is 108 % of control under setting [11]; 100 % of control under setting [12]; 97 % of control (dose: 200.0 mg/kg/injection, schedule: Q01DX005 (ip), vehicle: saline with Tween-80).
Take `CC1CCC2(C)CCC3(C)C(=CCC4C5(C)CCC(Oc6ccc(O)cc6)C(C)(C)C5CCC43C)C2C1C(=O)O` (stereo unspecified): the T/C by setting is: (dose: 0.5 mg/kg/injection, schedule: Q01DX005 (ip), vehicle: DMSO) 101 % of control; (dose: 1.0 mg/kg/injection, schedule: Q01DX005 (ip), vehicle: DMSO) 100 % of control; (dose: 2.0 mg/kg/injection, schedule: Q01DX005 (ip), vehicle: DMSO) 101 % of control; (dose: 4.0 mg/kg/injection, schedule: Q01DX005 (ip), vehicle: DMSO) 100 % of control.
As for `CSC(=O)/N=C(\N)NC(=O)c1ccccc1`, the T/C by setting is: (dose: 50.0 mg/kg/injection, schedule: Q01DX005 (ip), vehicle: Klucel (hydroxypropylcellulose) (HPC)) 95 % of control; (dose: 100.0 mg/kg/injection, schedule: Q01DX005 (ip), vehicle: Klucel (hydroxypropylcellulose) (HPC)) 94 % of control; (dose: 200.0 mg/kg/injection, schedule: Q01DX005 (ip), vehicle: Klucel (hydroxypropylcellulose) (HPC)) 92 % of control.
In the case of `CC(OS(C)(=O)=O)C(Br)C(Br)C(C)OS(C)(=O)=O` (stereo unspecified), the T/C was 168 % of control (dose: 100.0 mg/kg/injection, schedule: Q01DX001 (ip), vehicle: Klucel (hydroxypropylcellulose) (HPC)) and 176 % of control (dose: 200.0 mg/kg/injection, schedule: Q01DX001 (ip), vehicle: Klucel (hydroxypropylcellulose) (HPC)).
As for `NC(N)=NCCCSC(=O)C1CCCCC1`, the T/C under setting [11] is 105 % of control and the T/C under setting [12] is 107 % of control.
For `CN(C)CSCN(C)C`, the T/C is 103 % of control and 93 % of control (dose: 25.0 mg/kg/injection, schedule: Q01DX009 (ip), vehicle: saline with Tween-80); 100 % of control and 113 % of control (dose: 50.0 mg/kg/injection, schedule: Q01DX009 (ip), vehicle: saline with Tween-80); 102 % of control and 123 % of control (dose: 100.0 mg/kg/injection, schedule: Q01DX009 (ip), vehicle: saline with Tween-80).
As for `NS(=O)(=O)Oc1ccc(Cl)cc1C(=O)Oc1ccc(Cl)cc1`, the T/C by setting is: under setting [1], 91 % of control; under setting [2], 91 % of control; under setting [3], 88 % of control.
